Measured values as given in BindingDB's records for doi:10.1016/j.bmc.2019.115207 (Tokyo Institute of Innovative Research, 2020).

Target: Hypoxia-inducible factor 1-alpha (Homo sapiens, UniProt Q16665)
Test: Inhibition of HIF1alpha transcriptional activity in human HeLa cells transfected with HRE-firefly luciferase and cytomegalovirus-promoter expressing Renilla luciferase incubated for 12 hrs under 1% O2 condition by dual luciferase reporter gene assay

Sequence of Hypoxia-inducible factor 1-alpha (Q16665 whole entry): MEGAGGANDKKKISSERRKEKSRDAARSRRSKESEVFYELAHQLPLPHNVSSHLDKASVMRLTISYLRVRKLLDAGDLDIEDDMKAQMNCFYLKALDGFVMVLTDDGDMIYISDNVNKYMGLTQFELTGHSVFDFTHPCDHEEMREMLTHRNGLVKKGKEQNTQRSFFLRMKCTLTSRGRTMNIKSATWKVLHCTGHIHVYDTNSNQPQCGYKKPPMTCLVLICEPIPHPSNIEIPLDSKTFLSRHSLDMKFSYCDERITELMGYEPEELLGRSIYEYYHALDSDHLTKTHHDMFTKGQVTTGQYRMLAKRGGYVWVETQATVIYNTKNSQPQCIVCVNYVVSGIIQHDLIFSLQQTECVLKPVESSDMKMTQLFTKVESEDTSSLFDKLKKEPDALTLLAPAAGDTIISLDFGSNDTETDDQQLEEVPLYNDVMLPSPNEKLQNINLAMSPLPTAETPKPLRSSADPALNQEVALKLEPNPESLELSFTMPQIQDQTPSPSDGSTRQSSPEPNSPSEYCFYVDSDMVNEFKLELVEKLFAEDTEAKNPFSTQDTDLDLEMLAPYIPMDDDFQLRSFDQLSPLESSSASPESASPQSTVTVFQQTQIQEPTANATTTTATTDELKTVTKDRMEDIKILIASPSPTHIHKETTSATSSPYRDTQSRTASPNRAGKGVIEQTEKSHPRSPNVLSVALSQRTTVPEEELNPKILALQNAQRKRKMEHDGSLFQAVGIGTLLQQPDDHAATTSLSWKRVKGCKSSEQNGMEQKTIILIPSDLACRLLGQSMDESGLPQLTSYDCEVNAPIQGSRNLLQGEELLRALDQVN

Compound	IC50 [µM]
O=C1c2ccccc2-c2cn[nH]c21	> 30
Cn1ncc2c1C(=O)c1ccccc1-2	8.8
Cc1nn(-c2ccccc2)c2c1-c1ccccc1C2=O	4.8
O=C1c2ccccc2-c2cnn(-c3ccc(C(F)(F)F)cc3)c21	23
O=C1c2ncccc2-c2cnn(-c3ccccc3)c21	10
O=C1c2ccccc2-c2cnn(-c3ccccc3)c21	1.4

The next compounds have a lower IC50 than those just listed; values first:

IC50 [µM]	Compound
0.79	Cc1ccc(-n2ncc3c2C(=O)c2ccccc2-3)cc1
0.61	COc1ccc(-n2ncc3c2C(=O)c2ccccc2-3)cc1
0.39	O=C1c2ccccc2-c2cnn(-c3ccc(O)cc3)c21
